Test results as given in PMC11206828, “Catalytic Differences between Flavohemoglobins of Giardia intestinalis and E. coli” (Pathogens, 2024).
Entries after “also recorded” stand apart in the source; their conditions may differ. Read-outs that look alike come from different tables or passages of the source.

Legend:
[1] = molecular target: T1, Giardia flavohemoglobin (gFlHb) (Giardia intestinalis, UniProt E2RTZ4); test: NOD activity and Michaelis constants, gFlHb; type: biochemical; settings: pH 6.5, 37 °C
T1 sequence (E2RTZ4 1-458): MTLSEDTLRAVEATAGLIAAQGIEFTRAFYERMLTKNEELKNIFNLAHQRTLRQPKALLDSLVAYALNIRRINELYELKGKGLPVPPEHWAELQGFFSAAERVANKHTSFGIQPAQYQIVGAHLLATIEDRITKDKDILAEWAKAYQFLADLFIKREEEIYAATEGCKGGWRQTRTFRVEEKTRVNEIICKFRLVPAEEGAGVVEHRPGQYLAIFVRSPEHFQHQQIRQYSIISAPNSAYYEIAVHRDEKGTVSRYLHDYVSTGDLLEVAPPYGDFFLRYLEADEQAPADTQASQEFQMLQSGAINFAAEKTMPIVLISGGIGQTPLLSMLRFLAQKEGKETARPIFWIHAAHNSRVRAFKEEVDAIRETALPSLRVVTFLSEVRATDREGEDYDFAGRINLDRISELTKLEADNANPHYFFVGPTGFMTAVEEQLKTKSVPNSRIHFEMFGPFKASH

[2] = molecular target: T2, E. coli flavohemoglobin (Hmp) (Escherichia coli, UniProt P24232); set-up: method as in PMID 10777548; settings: 37 °C and pH 7; cited from earlier work
T2 sequence (P24232 whole entry): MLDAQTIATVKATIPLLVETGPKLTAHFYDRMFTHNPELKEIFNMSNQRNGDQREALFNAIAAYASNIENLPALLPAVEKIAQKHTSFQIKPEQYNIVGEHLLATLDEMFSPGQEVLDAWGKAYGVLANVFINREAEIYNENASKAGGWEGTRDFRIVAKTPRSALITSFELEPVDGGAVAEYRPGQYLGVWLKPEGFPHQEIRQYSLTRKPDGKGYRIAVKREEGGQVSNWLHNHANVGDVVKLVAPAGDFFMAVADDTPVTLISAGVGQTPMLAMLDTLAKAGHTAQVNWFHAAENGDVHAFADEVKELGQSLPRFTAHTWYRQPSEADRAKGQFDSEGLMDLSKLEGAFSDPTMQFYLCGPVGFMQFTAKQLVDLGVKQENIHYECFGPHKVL

[3] = molecular target: T2, E. coli flavohemoglobin (Hmp); test: Nitric oxide dioxygenase (NOD) inhibition assay, Hmp; type: biochemical; settings: for TN (turnover number from the inhibition fit), Hmp / Ki: pH 6.5, 37 °C
Experimental: (§1) The inhibitor was included in the assay solution before the addition of PROLI-NONOate. Inhibitors were also preincubated in the enzyme stock solutions at the same concentration. […] All inhibition experiments were done using the same enzyme preparations. Each assay at a particular concentration of inhibitor was measured in triplicate or more. […] To determine inhibition constants Ki, rate data obtained at different inhibitor concentrations were fit to the equation for non-competitive inhibition nonlinear regression (Equation (1)) using Graphpad Prism software. (1) v=Vmax/(Km,NO+[NO])1+[I]/Ki

[4] = molecular target: T1, Giardia flavohemoglobin (gFlHb); test: biochemical
Experimental: To determine NOD activity, Michaelis constant, and enzyme inhibition, rate assays were performed on a World Precision Instruments free radical analyzer (WPI, Sarasota, FL, USA) equipped with an NO-sensitive electrode and a temperature probe, connected to an analog digital converter controlled by Labscribe software, version 4 (iWorx, Dover, NH, USA).
Assays were conducted on a 6 mL scale in cropped 50 mL Falcon tubes in a buffer containing 0.1 M Bis-Tris (pH 6.5) and 100 μM NADH. To minimize protein adhesion to the walls of the chamber, 0.25 mg/mL bovine serum albumin (BSA; Fisher Scientific, Ottawa, ON, Canada) was added. […] Reactions were run at 37 °C in a stirred cell block heater with a four-placed machined aluminum block that matched the taper of the Falcon tubes. With this block arrangement up to four assay solutions could be warmed to the desired temperature beforehand. Upon thermal equilibration to 37 °C, the NO donor compound PROLI-NONOate (Cayman Chemical, Ann Arbor, MI, USA) prepared in 10 mM NaOH was added; 2 moles of NO are released per mole of donor. At the peak of NO release, which occurred within several seconds, flavohemoglobin and FAD were added to a final concentration of 2 nM and 10 nM, respectively. NOD activity was measured as the initial rate of NO signal decrease over the first 15 to 30 s of the reaction. […] Rate data were fitted to the Michaelis–Menten equation by nonlinear regression using Graphpad Prism software, version 9.4.1 (Dotmatics, Boston MA, USA).
as §1

[5] = molecular target: ferric gFlHb (Giardia intestinalis, UniProt E2RTZ4); settings: read-out: Binding constant KD, ferric gFlHb; optical titration, 0.1 M Bis-Tris pH 6.5, 3.5 μM flavohemoglobin, nitrite 0 to 750 μM
Experimental: (§2) Titrations of ferric gFlHb and Hmp were performed in 0.1 M Bis-Tris buffer (BioShop, Burlington, ON, Canada) pH 6.5 on a Cary 400 Bio UV-visible spectrophotometer (Agilent Technologies, Mississauga, ON, Canada).

[6] = molecular target: ferric Hmp (Escherichia coli, UniProt P24232); settings: optical titration, 0.1 M Bis-Tris pH 6.5
ferric Hmp, sequence (P24232 whole entry): as above
Experimental: as §2

[7] = molecular target: T1, Giardia flavohemoglobin (gFlHb); settings: cited from earlier work
[8] = pH 6.5, 37 °C, 100 μM NADH, 1 μM NO
[9] = pH 6.5, 37 °C, 100 μM NADH, 1 μM NO, imidazole and nitrite: Ki of the inhibitor-sensitive phase of a biphasic fit, read-out: Nitric oxide dioxygenase inhibition constant Ki, gFlHb

In the case of nitric oxide [NO], the “Michaelis constant KmNO, gFlHb” value ([1]; NADH held at 100 μM, NO up to 3 μM) is given as 0.65 ± 0.09 µM and the “Michaelis constants of Hmp (KmNO, KmNADH, KmO2)” value (from here on “Michaelis constants of Hmp”) [2] is given as 0.28 µM.
For c1c[nH]cn1 [Imidazole, imidazole], the “TN (turnover number from the inhibition fit), Hmp” value ([3]; 100 μM NADH, 1 μM NO) was 33 ± 1 s⁻¹, the Ki ([3]; read-out: Nitric oxide dioxygenase inhibition constant Ki, Hmp, 100 μM NADH, 1 μM NO, imidazole: Ki of the inhibitor-sensitive phase of a biphasic fit) was 69 ± 10 µM and the “TN (turnover number from the inhibition fit), gFlHb” value [4, 8] was 22 ± 1 s⁻¹. For the same molecule, the Ki [4, 9] was 20 ± 6 µM.
For Cn1ccnc1 [1-methylimidazole], the Ki ([3]; Inhibition constant, Hmp (bound), NOD inhibition) was > 1000 µM, the Ki ([3]; Nitric oxide dioxygenase inhibition constant Ki, Hmp, 100 μM NADH, 1 μM NO, imidazole: Ki of the inhibitor-sensitive phase of a biphasic fit) was 1400 ± 250 µM and the “TN (turnover number from the inhibition fit), Hmp” value ([3]; 100 μM NADH, 1 μM NO) was 38 ± 2 s⁻¹. The Ki [4] was 1200 ± 300 µM, the Ki ([4]; Inhibition constant, gFlHb (bound), NOD inhibition, pH 6.5, 37 °C) was > 1000 µM and the “TN (turnover number from the inhibition fit), gFlHb” value [4, 8] was 25 ± 1 s⁻¹.
In the case of NC(=O)C1=CN([C@@H]2O[C@H](COP(=O)(O)OP(=O)(O)OC[C@H]3O[C@@H](n4cnc5c(N)ncnc54)[C@H](O)[C@@H]3O)[C@@H](O)[C@H]2O)C=CC1 [NADH, nicotinamide adenine dinucleotide], the “Michaelis constant KmNADH, gFlHb” value ([1]; NO held at 2 μM, NADH up to 200 μM) is listed as 22 ± 4 µM and the “Michaelis constants of Hmp” value [2] is listed as 4.8 µM.
In the case of O=NO [Nitrite, nitrite], the Kd [5] is reported as 180 ± 20 µM, the “Optical differences of Hmp in the presence of nitrite (KD)” value [6] is reported as “too small to permit any such calculation” and the “Effect on NOD activity of Hmp” value ([3]; concentrations up to 2 mM) is reported as “not significantly affected; also recorded: no significant effect”. For the same molecule, the “TN (turnover number from the inhibition fit), gFlHb” value [4, 8] was 23 ± 1 s⁻¹ and the Ki [4, 9] was 32 ± 12 µM.
For O=O [oxygen], the “Michaelis constant of gFlHb for oxygen” value [7] is listed as 22 ± 7 µM and the “Michaelis constants of Hmp” value [2] is listed as “approximately 100 μM”.
